Drawing on patent publication US20250115572A1, “SPIROCYCLIC PIPERIDINYL DERIVATIVES AS COMPLEMENT FACTOR B INHIBITORS AND USES THEREOF” (Novartis AG, priority 2022, published 2025), this text covers IC50 for 47 compounds.

Like-named read-outs stand apart in the source and are kept apart here. Where only a bound is given, the exact number is not on record here.

This assay has as its target Recombinant human factor B (Homo sapiens (Human), UniProt P00751). The assay can be described thus: Human Complement Factor B TR-FRET Assay. It is filed as binding. As to conditions: * = assay behavior at and above the stated concentration prevented IC50 determination. How it is done:
The time-gated decrease in fluorescence intensity related to the competition between labeled and unlabeled factor B ligands was recorded at both 620 nm and 665 nm, 70 μs after excitation at 337 nm using a microplate spectrofluorimeter.
(In TR-FRET formats the signal depends on donor and acceptor labels being close together.)

Setting [1] is: displacement of labeled factor B ligand, read-out: hFactor-B TR-FRET Qualified IC50.

Chain of Recombinant human factor B (P00751 26-764): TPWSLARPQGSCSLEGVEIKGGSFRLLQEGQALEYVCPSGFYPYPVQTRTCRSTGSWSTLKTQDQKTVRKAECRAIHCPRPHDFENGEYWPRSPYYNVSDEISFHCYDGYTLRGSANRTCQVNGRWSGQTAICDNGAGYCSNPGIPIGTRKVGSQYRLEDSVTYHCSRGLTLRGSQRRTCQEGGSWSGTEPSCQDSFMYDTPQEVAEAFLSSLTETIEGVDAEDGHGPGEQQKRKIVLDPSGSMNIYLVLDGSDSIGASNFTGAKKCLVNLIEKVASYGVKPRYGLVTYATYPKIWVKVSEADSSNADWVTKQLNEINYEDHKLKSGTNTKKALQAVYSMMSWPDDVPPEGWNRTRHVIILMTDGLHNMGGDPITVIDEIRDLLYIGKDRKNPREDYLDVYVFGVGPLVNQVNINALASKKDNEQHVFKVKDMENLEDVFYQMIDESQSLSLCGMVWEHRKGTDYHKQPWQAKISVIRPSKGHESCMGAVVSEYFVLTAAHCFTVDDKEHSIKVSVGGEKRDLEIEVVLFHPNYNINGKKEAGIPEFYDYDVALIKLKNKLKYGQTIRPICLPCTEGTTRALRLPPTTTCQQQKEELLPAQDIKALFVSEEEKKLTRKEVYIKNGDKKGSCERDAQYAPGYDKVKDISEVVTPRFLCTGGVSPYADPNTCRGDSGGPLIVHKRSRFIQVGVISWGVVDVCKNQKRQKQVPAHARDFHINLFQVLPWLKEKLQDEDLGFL

Regarding `COc1cc(C)c2[nH]ccc2c1CN1CCC2(CC1c1ccc(C(=O)O)cc1)CC(C)(O)C2` (racemic) [Ex-13], the IC50 under setting [1] was 0.0294 µM.

Consider `COc1cc(C)c2[nH]ccc2c1CN1CCC2(CC1c1ccc(C(=O)O)cc1)CC(C)(O)C2` (racemic) [Ex-16], for which the half-maximal inhibitory concentration (IC50) under setting [1] is 0.434 µM.

Take `COc1cc(C)c2[nH]ccc2c1CN1CCC2(CC1c1ccccc1)CC(F)(F)C2` (racemic) [Ex-35]: under setting [1], the IC50 amounted to 0.0173 µM.

Consider `COc1cc(C)c2[nH]ccc2c1CN1CCC2(CC1c1cnn(C)c1)CC(F)(F)C2` (racemic) [Ex-36], for which the concentration for half-maximal inhibition (IC50) under setting [1] stood at 0.0245 µM.

With `COc1cc(C)c2[nH]ccc2c1CN1CCC2(CC1c1ccc(C(=O)O)cc1)CC(F)(F)C2` (racemic) [Ex-47], the IC50 (hFactor-B TR-FRET Qualified IC50, displacement of labeled factor B ligand) amounted to 0.0025 µM.

Regarding `Cc1cc(C2CC2)c(CN2CCC3(CC2c2ccc(C(C)(C)O)cc2)CC(F)(F)C3)c2cc[nH]c12` (racemic) [Ex-48], under setting [1], the 50% inhibitory concentration (IC50) stood at 0.0089 µM.

As for `Cc1cc(C2CC2)c(CN2CCC3(CC2c2ccc(C4(O)COC4)cc2)CC(F)(F)C3)c2cc[nH]c12` (racemic) [Ex-49, 3-(4-(7-((5-cyclopropyl-7-methyl-1H-indol-4-yl)methyl)-2,2-difluoro-7-azaspiro[3.5]nonan-6-yl)phenyl)oxetan-3-ol], the IC50 under setting [1] is 0.0056 µM.

With `Cc1cc(C2CC2)c(CN2CCC3(CC2c2ccc(-n4cccn4)cc2)CC(F)(F)C3)c2cc[nH]c12` (racemic) [Ex-50], the IC50 under setting [1] is 0.007 µM.

As to `Cc1cc(C2CC2)c(CN2CCC3(CC2c2ccc(-c4ccn[nH]4)cc2)CC(F)(F)C3)c2cc[nH]c12` (racemic) [Ex-51], the half-inhibitory concentration (IC50) under setting [1] turned out to be 0.0042 µM.

With `COc1cc(C)c2[nH]ccc2c1CN1CCC2(CC1c1ccc(C(F)F)cc1)CC(F)(F)C2` (racemic) [Ex-52], the half-inhibitory concentration (IC50) under setting [1] came out at 0.172 µM.

Consider `COc1cc(C)c2[nH]ccc2c1CN1CCC2(CC1c1ccc(-c3nnn[nH]3)cc1)CC(F)(F)C2` (racemic) [Ex-54, (SR)-6-(4-(1H-tetrazol-5-yl)phenyl)-2,2-difluoro-7-((5-methoxy-7-methyl-1H-indol-4-yl)methyl)-7-azaspiro[3.5]nonane], for which the half-maximal inhibitory concentration (IC50) under setting [1] was determined as 0.0022 µM.

Take `Cc1cc(C2CC2)c(CN2CCC3(CC2c2ccc(-c4nnn[nH]4)cc2)CC(F)(F)C3)c2cc[nH]c12` (racemic) [Ex-57, 6-(4-(1H-tetrazol-5-yl)phenyl)-7-((5-cyclopropyl-7-methyl-1H-indol-4-yl)methyl)-2,2-difluoro-7-azaspiro[3.5]nonane]: the half-inhibitory concentration (IC50) under setting [1] came out at 0.005 µM.

On to `COc1cc(C)c2[nH]ccc2c1CN1CCC2(CC1c1ccc(-c3nnn[nH]3)nc1)CC(F)(F)C2` (racemic) [Ex-58, (SR)-6-(6-(1H-tetrazol-5-yl)pyridin-3-yl)-2,2-difluoro-7-((5-methoxy-7-methyl-1H-indol-4-yl)methyl)-7-azaspiro[3.5]nonane], for which the concentration for half-maximal inhibition (IC50) under setting [1] was determined as 0.0038 µM.

For `Cc1cc(C2CC2)c(CN2CCC3(CC2c2ccc(-c4nnn[nH]4)nc2)CC(F)(F)C3)c2cc[nH]c12` (racemic) [Ex-61, (SR)-6-(6-(1H-tetrazol-5-yl)pyridin-3-yl)-7-((5-cyclopropyl-7-methyl-1H-indol-4-yl)methyl)-2,2-difluoro-7-azaspiro[3.5]nonane], under setting [1], the IC50 worked out at 0.0038 µM.

Regarding `COc1cc(C)c2[nH]ccc2c1CN1CCC2(C[C@H]1c1ccc(C(=O)O)cc1)CC(C)(F)C2` (single isomer, unassigned) [Ex-1], the concentration for half-maximal inhibition (IC50) under setting [1] amounted to 0.0005 µM.

Consider `COc1cc(C)c2[nH]ccc2c1CN1CCC2(C[C@@H]1c1ccc(C(=O)O)cc1)CC(C)(F)C2` (single isomer, unassigned) [Ex-2], for which the half-inhibitory concentration (IC50) under setting [1] worked out at 6.81 µM.

Turning to `COc1cc(C)c2[nH]ccc2c1CN1CCC2(C[C@H]1c1ccc(C(=O)O)cc1)CC(C)(F)C2` (single isomer, unassigned) [Ex-3], the IC50 under setting [1] turned out to be 0.0407 µM.

As to `COc1cc(C)c2[nH]ccc2c1CN1CCC2(C[C@@H]1c1ccc(C(=O)O)cc1)CC(C)(F)C2` (single isomer, unassigned) [Ex-4], the IC50 under setting [1] came to 0.461 µM.

Regarding `COc1cc(C)c2[nH]ccc2c1CN1CCC2(CC(F)C2)C[C@H]1c1ccc(C(=O)O)cc1` (single isomer, unassigned) [Ex-7], the 50% inhibitory concentration (IC50) under setting [1] was determined as 0.0008 µM.

As to `COc1cc(C)c2[nH]ccc2c1CN1CCC2(CC(F)C2)C[C@@H]1c1ccc(C(=O)O)cc1` (single isomer, unassigned) [Ex-8], the concentration for half-maximal inhibition (IC50) under setting [1] came out at 0.227 µM.

`COc1cc(C)c2[nH]ccc2c1CN1CCC2(CC(F)C2)C[C@H]1c1ccc(C(=O)O)cc1` (single isomer, unassigned) [Ex-9, 4-(2-fluoro-7-((5-methoxy-7-methyl-1H-indol-4-yl)methyl)-7-azaspiro[3.5]nonan-6-yl)benzoic acid]: the IC50 under setting [1] turned out to be 0.0021 µM.

As to `COc1cc(C)c2[nH]ccc2c1CN1CCC2(CC(F)C2)C[C@@H]1c1ccc(C(=O)O)cc1` (single isomer, unassigned) [Ex-10], the half-inhibitory concentration (IC50) under setting [1] was 0.242 µM.

In the case of `COc1cc(C)c2[nH]ccc2c1CN1CCC2(C[C@@H]1c1ccc(C(=O)O)cc1)CC(C)(O)C2` (single isomer, unassigned) [Ex-14], under setting [1], the concentration for half-maximal inhibition (IC50) was 10 µM.

Turning to `COc1cc(C)c2[nH]ccc2c1CN1CCC2(C[C@H]1c1ccc(C(=O)O)cc1)CC(C)(O)C2` (single isomer, unassigned) [Ex-15], the IC50 under setting [1] stood at 0.105 µM.

As for `COc1cc(C)c2[nH]ccc2c1CN1CCC2(CCC(F)(F)C2)C[C@@H]1c1ccc(C(=O)O)cc1` (single isomer, unassigned) [Ex-17], the IC50 under setting [1] was 0.32 µM.

In the case of `COc1cc(C)c2[nH]ccc2c1CN1CCC2(CCC(F)(F)C2)C[C@H]1c1ccc(C(=O)O)cc1` (single isomer, unassigned) [Ex-18, 4-((5S,7S)-2,2-difluoro-8-((5-methoxy-7-methyl-1H-indol-4-yl)methyl)-8-azaspiro[4.5]decan-7-yl)benzoic acid or 4-((5R,7S)-2,2-difluoro-8-((5-methoxy-7-methyl-1H-indol-4-yl)methyl)-8-azaspiro[4.5]decan-7-yl)benzoic acid], the half-inhibitory concentration (IC50) under setting [1] is 0.0034 µM.

For `COc1cc(C)c2[nH]ccc2c1CN1CCC2(CCC(F)(F)C2)C[C@@H]1c1ccc(C(=O)O)cc1` (single isomer, unassigned) [Ex-19], the IC50 under setting [1] amounted to 1.46 µM.

Take `COc1cc(C)c2[nH]ccc2c1CN1CCC2(CCC(F)(F)C2)C[C@H]1c1ccc(C(=O)O)cc1` (single isomer, unassigned) [Ex-20]: the IC50 under setting [1] is 0.0076 µM.

Regarding `Cc1cc(C2CC2(F)F)c(CN2CCC3(C[C@H]2c2ccc(C(=O)O)cc2)CC(F)(F)C3)c2cc[nH]c12` (single isomer, unassigned) [Ex-23], the IC50 under setting [1] was found to be 0.0089 µM.

For the compound `Cc1cc(C2CC2(F)F)c(CN2CCC3(C[C@H]2c2ccc(C(=O)O)cc2)CC(F)(F)C3)c2cc[nH]c12` (single isomer, unassigned) [Ex-24], the IC50 under setting [1] was found to be 0.0314 µM.

As to `Cc1cc(C2CC2)c(CN2CCC3(C[C@H]2c2ccc(C4(O)COC4)cc2)CC(F)(F)C3)c2cc[nH]c12` (single isomer, unassigned) [Ex-25], the concentration for half-maximal inhibition (IC50) under setting [1] amounted to 0.004 µM.

With `Cc1cc(C2CC2)c(CN2CCC3(C[C@@H]2c2ccc(C4(O)COC4)cc2)CC(F)(F)C3)c2cc[nH]c12` (single isomer, unassigned) [Ex-26], the IC50 under setting [1] was above 0.4 µM.

With `Cc1cc(C2CC2)c(CN2CCC3(C[C@H]2c2ccc(C(C)(C)O)cc2)CC(F)(F)C3)c2cc[nH]c12` (single isomer, unassigned) [Ex-27], the half-inhibitory concentration (IC50) under setting [1] was found to be 0.0069 µM.

For the compound `Cc1cc(C2CC2)c(CN2CCC3(C[C@@H]2c2ccc(C(C)(C)O)cc2)CC(F)(F)C3)c2cc[nH]c12` (single isomer, unassigned) [Ex-28], under setting [1], the IC50 is above 0.4 µM.

Regarding `Cc1cc(C2CC2)c(CN2CCC3(C[C@H]2c2ccc(-c4ccn[nH]4)cc2)CC(F)(F)C3)c2cc[nH]c12` (single isomer, unassigned) [Ex-29], the 50% inhibitory concentration (IC50) under setting [1] is 0.0051 µM.

On to `Cc1cc(C2CC2)c(CN2CCC3(C[C@@H]2c2ccc(-c4ccn[nH]4)cc2)CC(F)(F)C3)c2cc[nH]c12` (single isomer, unassigned) [Ex-30], for which the 50% inhibitory concentration (IC50) under setting [1] is above 0.1 µM.

For `Cc1cc(C2CC2)c(CN2CCC3(C[C@H]2c2ccc(-n4cccn4)cc2)CC(F)(F)C3)c2cc[nH]c12` (single isomer, unassigned) [Ex-31], the half-inhibitory concentration (IC50) under setting [1] is 0.0038 µM.

As to `Cc1cc(C2CC2)c(CN2CCC3(C[C@@H]2c2ccc(-n4cccn4)cc2)CC(F)(F)C3)c2cc[nH]c12` (single isomer, unassigned) [Ex-32], the IC50 under setting [1] is above 0.4 µM.

For `Cc1cc(C2CC2)c(CN2CCC3(C[C@H]2c2ccc(-c4nnn[nH]4)cc2)CC(F)(F)C3)c2cc[nH]c12` (single isomer, unassigned) [Ex-33], the IC50 under setting [1] stood at 0.0016 µM.

For `Cc1cc(C2CC2)c(CN2CCC3(C[C@@H]2c2ccc(-c4nnn[nH]4)cc2)CC(F)(F)C3)c2cc[nH]c12` (single isomer, unassigned) [Ex-34], under setting [1], the IC50 was found to be 0.124 µM.

`COc1cc(C)c2[nH]ccc2c1CN1CCC2(C[C@H]1c1ccccc1)CC(F)(F)C2` (single isomer, unassigned) [Ex-37]: under setting [1], the half-inhibitory concentration (IC50) was 0.0112 µM.

With `COc1cc(C)c2[nH]ccc2c1CN1CCC2(C[C@@H]1c1ccccc1)CC(F)(F)C2` (single isomer, unassigned) [Ex-38], the 50% inhibitory concentration (IC50) under setting [1] was 5.51 µM.

On to `COc1cc(C)c2[nH]ccc2c1CN1CCC2(C[C@H]1c1cnn(C)c1)CC(F)(F)C2` (single isomer, unassigned) [Ex-39], for which, under setting [1], the concentration for half-maximal inhibition (IC50) was determined as 0.0103 µM.

As to `COc1cc(C)c2[nH]ccc2c1CN1CCC2(C[C@@H]1c1cnn(C)c1)CC(F)(F)C2` (single isomer, unassigned) [Ex-40], the IC50 under setting [1] was determined as 0.864 µM.

For the compound `COc1cc(C)c2[nH]ccc2c1CN1CCC2(C[C@H]1c1cnn(C(F)F)c1)CC(F)(F)C2` (single isomer, unassigned) [Ex-41], under setting [1], the 50% inhibitory concentration (IC50) came out at 0.0096 µM.

For the compound `COc1cc(C)c2[nH]ccc2c1CN1CCC2(C[C@@H]1c1cnn(C(F)F)c1)CC(F)(F)C2` (single isomer, unassigned) [Ex-42], the IC50 under setting [1] amounted to 0.861 µM.

As for `COCCn1cc([C@H]2CC3(CCN2Cc2c(OC)cc(C)c4[nH]ccc24)CC(F)(F)C3)cn1` (single isomer, unassigned) [Ex-43], the IC50 under setting [1] was determined as 2.79 µM.

A word on the IC50: it is the midpoint of a concentration-inhibition curve.
